Laboratory results as given in patent US9408847B2, “Combination therapy” (Novartis AG, priority 2012, dated 2016).

System: MCF7 tumor xenograft
Assay: MCF7 tumor xenograft model in vivo
Conditions: female nude mice
Protocol: MCF-7 cells were purchased from American Type Culture Collection (ATCC). They were tested free of mycoplasma and viral contamination in the IMPACT VIII PCR assay panel (RADIL, MU Research Animal Diagnostic Laboratory, Columbia, Mo.). They were cultured in EMEM medium (ATCC#30-2003) containing 10% heat inactivated fetal bovine serum, and were at passage 18 for this experiment. Female, nude mice from Harlan (Hsd:Athymic Nude-Foxn1nu) were used in this xenograft study. Mice received 17b-estradiol pellets (0.18 mg/pellet, 90-day release) (Innovative research of America Catalog # NE-121) implanted between the shoulder blades three days before cell implantation. Tumor volume and body weight were monitored throughout the experiment.

SMILES | T/T0 (monotherapy at 5 mg/kg) [%] | T/T0 (monotherapy at 75 mg/kg) [%]
COC1CC2CC[C@@H](C)[C@@](O)(O2)C(=O)C(=O)N2CCCC[C@H]2C(=O)OC(C(C)C[C@@H]2CCC(OCCO)[C@H](OC)C2)CC(=O)C(C)/C=C(\C)[C@@H](O)C(OC)C(=O)[C@H](C)CC(C)/C=C/C=C/C=C/1C (stereo in doubt) [Compound B, (1R,9S,12S,15R,16E,18R,19R,21R,23S,24E,26E,28E,30S,32S,35R)-1,18-dihydroxy-12-{(1R)-2-[(1S,3R,4R)-4-(2-hydroxyethoxy)-3-methoxycyclohexyl]-1-methylethyl}-19,30-dimethoxy-15,17,21,23,29,35-hexamethyl-11,36-dioxa-4-aza-tricyclo[30.3.1.04,9]hexatriaconta-16,24,26,28-tetraene-2,3,10,14,20-pentaone] | −21 | –
CN(C)C(=O)c1cc2cnc(Nc3ccc(N4CCNCC4)cn3)nc2n1C1CCCC1 [Compound A] | – | −9
